{
  "source": "paper PMC11417994",
  "about": "“Cyclohexanediamine Triazole (CHDT) Functionalization Enables Labeling of Target Molecules with Al^18F/^68Ga/^111In” (Bioconjugate Chemistry, 2024)",
  "target": "T1, PSMA (Homo sapiens, UniProt Q04609)",
  "T1 construct": "Detection of endogenous PSMA expression in LNCaP and PC3 cells relative to β-actin expression by Western; host or cells: LNCaP human prostate carcinoma cells (monolayer, spheroids or Potter-Elvehjem homogenates)",
  "T1 sequence (Q04609 whole entry)": "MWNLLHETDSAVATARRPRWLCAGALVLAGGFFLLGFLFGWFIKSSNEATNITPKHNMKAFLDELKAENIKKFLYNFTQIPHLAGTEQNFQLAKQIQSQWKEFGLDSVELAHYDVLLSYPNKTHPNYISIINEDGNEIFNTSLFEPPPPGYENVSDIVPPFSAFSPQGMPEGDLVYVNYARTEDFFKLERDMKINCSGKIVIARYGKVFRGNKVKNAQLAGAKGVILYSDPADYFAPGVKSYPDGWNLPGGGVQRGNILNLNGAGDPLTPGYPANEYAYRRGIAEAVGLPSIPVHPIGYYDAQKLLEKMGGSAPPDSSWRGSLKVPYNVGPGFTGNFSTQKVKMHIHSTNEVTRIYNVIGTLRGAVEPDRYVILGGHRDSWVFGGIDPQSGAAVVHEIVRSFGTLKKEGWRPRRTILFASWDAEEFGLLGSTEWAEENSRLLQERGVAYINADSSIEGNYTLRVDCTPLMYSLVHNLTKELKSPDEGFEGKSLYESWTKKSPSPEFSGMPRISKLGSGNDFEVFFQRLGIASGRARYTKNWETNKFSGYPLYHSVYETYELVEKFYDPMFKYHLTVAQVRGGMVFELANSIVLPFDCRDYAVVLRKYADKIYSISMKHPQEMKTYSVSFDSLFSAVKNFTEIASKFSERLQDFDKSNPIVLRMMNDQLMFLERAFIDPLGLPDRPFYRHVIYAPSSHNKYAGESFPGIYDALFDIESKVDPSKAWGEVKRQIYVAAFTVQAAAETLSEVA",
  "assay": "Saturation binding using LNCaP cell homogenates",
  "description": "The binding affinity of the nonlabeled CHDT-PSMA-1/2/3, PSMA-1007, PSMA-617, and KuE was assessed in competition binding assays using LNCaP cell homogenates (∼1 × 10^6 cells/mL using Potter-Elvehjem) and the radioligand [^177Lu]Lu-PSMA-617 (n = 5 for CHDT-PSMA-1; n = 4 for CHDT-PSMA-2/3; n = 2 for PSMA-1007; n = 8 for PSMA-617; n = 6 for KuE). […] The assays were performed in a final volume of 200 μL. The incubation was stopped by washing the homogenate with cold PBS four times using a filter (Whatman GF/C, 90 min presoaked in 0.3% polyethylenimine) in a cell harvester (Brandel, USA). The radioactivity bound to the filter was measured in a gamma counter. Filter binding was determined for adjacent samples without cell homogenate. […] The Kd value of [^177Lu]Lu-PSMA-617 was determined in saturation binding assays using LNCaP cell homogenates to be 15.2 (±2.1) nM. […]\nDissociations constants (Kd and Kd,int), as well as maximal binding capacities (Bmax and Bmax,int), were derived from specific binding data by nonlinear regression according to the model of “One site-specific binding” as implemented in GraphPad Prism 10. Protein content was determined using the bicinchoninic acid protein assay kit (Pierce, Thermo Scientific) to calculate the binding capacities in pmol/mg and for the time-depending internalization the internalized percent of administrated dose per μg protein (% AD/μg protein).",
  "data": [
    {"substance": "[^177Lu]Lu-PSMA-617", "values": [
      {"measurement": "Kd", "value": 15.2, "unit": "nM"}
    ]}
  ]
}
